The text below walks through data of US20040209318A1, “Reagents and methods for the detection and quantification of vancomycin in bilogical fluids” (priority 1995, published 2004).

Experiment [1] has as its target anti-vancomycin Fab fragment. The experiment in a line: BIAcore solution competition, equilibrium dissociation constant. The format is binding, mouse. Particulars: in solution, 20 nM Fab fragment; read-out: Equilibrium Dissociation Constant (KD). The procedure:
Biosensor surfaces were regenerated after each injection with successive 1 minute pulses of 6 M, 6M, and 1.5 M guanidine hydrochloride. Initial rates of binding of anti-vancomycin Fab fragment to the biosensor surface were measured over a 15 second window beginning 20 seconds postinjection. Data was evaluated by non-linear regression analysis using the solution affinity model built into BIAevaluation 3.0 software (BIAcore, Inc).
The binding affinities of several vancomycin analogs and tracers for anti-vancomycin Fab fragment were determined from solution competition experiments carried out on a BIAcore 2000. Initially, known concentrations of anti-vancomycin Fab fragment (0-22 nM) were injected over the aminoalkyl vancomycin biosensor surface. The initial rate of binding for each anti-vancomycin Fab fragment concentration was obtained by averaging the observed binding rate over a […] window beginning 20 seconds post injection. Data from the first 20 seconds of each sensorgram were omitted due to sample dispersion effects at the start of injections. A plot of initial binding rate versus concentration of anti-vancomycin Fab fragment was fit using a 4-parameter logistic (general model in BIAevaluation 3.0) providing a standard curve. […] A fixed concentration of anti-vancomycin Fab fragment (20 nM) was then mixed with twelve concentrations of each vancomycin analog or tracer and allowed to reach equilibrium. The equilibrium mixtures were individually injected over the aminoalkyl vancomycin biosensor surface, and the concentration of free anti-vancomycin Fab fragment remaining was quantitated by determination of the initial rate of binding to the biosensor surface as described above. A plot of free anti-vancomycin Fab fragment versus total concentration of added analog or tracer provides a competition curve. […] The data points represent the experimentally determined concentrations of free anti-vancomycin Fab fragment in equilibrium solutions at a given concentration of soluble analog or tracer. The curves represent the best nonlinear fit of the data using equation 1 (solution affinity model in BIAevaluation software) below: [formula]
where Fabτ is the concentration of free anti-vancomycin Fab fragment in equilibrium solutions, Fabτ is the total concentration of anti-vancomycin Fab fragment in solution (20 nM), A is the total concentration of added vancomycin analog or tracer, and KD is the equilibrium dissociation constant for the binding of the vancomycin analog or tracer to anti-vancomycin Fab fragment in solution.

Experiment [2] relates to sheep polyclonal antibodies against vancomycin. Description: commercially available Abbott Vancomycin assay (TDX/TDXFLX FPIA), cross reactivity. Type of experiment: binding. The following applies: for COMMERCIAL ASSAY VALUES / COMMERCIAL ASSAY cross reactivity: 0 ug/mL vancomycin. The source says:
Commercially available fluorescent polarization assays (FPIA) for vancomycin are available. For instance, commercially available assays (Abbott […]® assays, (hereinafter referred to as the “commercially available Abbott Vancomycin assays(s)”)) include reagents for the quantitative measurement of vancomycin in serum or plasma samples. These assays use a vancomycin derivative labeled with a dichlorotriazinylaminofluorescein (DTAF) (hereinafter referred to as the “commercially available tracer”), and sheep polyclonal antibodies against vancomycin (hereinafter referred to as “commercially available antibodies”). […] In contrast, the commercially available vancomycin assay has elevated levels of CDP-I cross reactivity ranging from 39.58% to 65% with or without vancomycin present. […] (Refer to Table 3 for CDP-I cross-reactivity data.)

Experiment [3] has as its system monoclonal antibody #15-109-592. The experiment in a line: Fluorescence polarization immunoassay of the present invention, cross reactivity. The following applies: for PRESENT INVENTION VALUES / PRESENT INVENTION cross reactivity: 0 ug/mL vancomycin. The format is binding, mouse.
[4] abbreviates: 40 ug/mL vancomycin, 1 ug/mL CDP-I.
Setting [5] is: 40 ug/mL vancomycin, 10 ug/mL CDP-I.
Setting [6] is: 40 ug/mL vancomycin, 50 ug/mL CDP-I.
The mark [7] stands for this setting: 40 ug/mL vancomycin, 100 ug/mL CDP-I.
Setting [8] is: 80 ug/mL vancomycin, 1 ug/mL CDP-I.
Where [9] appears, read: 80 ug/mL vancomycin, 10 ug/mL CDP-I.
The mark [10] stands for this setting: 80 ug/mL vancomycin, 50 ug/mL CDP-I.
Setting [11] is: 80 ug/mL vancomycin, 100 ug/mL CDP-I.

Some results are limits rather than exact numbers.

Consider `CC(C)CC(C(=O)NC1C(=O)NC(CC(N)=O)C(=O)NC2C(=O)NC3C(=O)NC(C(=O)NC(C(=O)O)c4cc(O)cc(O)c4-c4cc3ccc4O)C(O)c3ccc(c(Cl)c3)Oc3cc2cc(c3OC2OC(CO)C(O)C(O)C2OC2CC(C)(N)C(O)C(C)O2)Oc2ccc(cc2Cl)C1O)N(C)C(=O)CCCCC1SCC2NC(=O)NC21` (centres unmarked) [compound 16], for which, in experiment [1], the Kd (in general, the free concentration of one partner at which half of the binding sites on the other are occupied at equilibrium, for simple one-to-one binding) was at most 0.2 nM.

`CNC(CC(C)C)C(=O)NC1C(=O)NC(CC(N)=O)C(=O)NC2C(=O)NC3C(=O)NC(C(=O)NC(C(=O)O)c4cc(O)cc(O)c4-c4cc3ccc4O)C(O)c3ccc(c(Cl)c3)Oc3cc2cc(c3OC2OC(CO)C(O)C(O)C2OC2CC(C)(NC(=O)CCCN(C(=O)c3c4ccccc4[n+](CCCS(=O)(=O)[O-])c4ccccc34)S(=O)(=O)c3ccc(C)cc3)C(O)C(C)O2)Oc2ccc(cc2Cl)C1O` (centres unmarked) [compound 15]: the Kd in experiment [1] came to 1200 ± 100 nM.

As for “Crystalline degradation product (CDP) [compound 10]”, in experiment [1], the dissociation constant (Kd) amounted to 488 ± 34 nM.

Take Ring-2 dechloro CDP [compound 12]: the dissociation constant (Kd) in experiment [1] was determined as 6000 nM.

As to Ring-2 dechlorovancomycin [compound 8], the dissociation constant Kd in experiment [1] stood at 87 ± 4 nM.

`CN[C@H](CC(C)C)C(=O)N[C@H]1C(=O)N[C@@H](CC(N)=O)C(=O)N[C@H]2C(=O)N[C@H]3C(=O)N[C@H](C(=O)N[C@H](C(=O)O)c4cc(O)cc(O)c4-c4cc3ccc4O)[C@H](O)c3ccc(c(Cl)c3)Oc3cc2cc(c3O[C@@H]2O[C@H](CO)[C@@H](O)[C@H](O)[C@H]2O)Oc2ccc(cc2Cl)[C@H]1O` [compound 5, Desvancosaminylvancomycin]: the Kd in experiment [1] was 587 ± 27 nM.

AglucoCDP [compound 11]: the Kd in experiment [1] is at least 50000 nM.

Turning to `CNC(CC(C)C)C(=O)NC1C(=O)NC(C(=O)O)CC(=O)NC2C(=O)NC3C(=O)NC(C(=O)NC(C(=O)O)c4cc(O)cc(O)c4-c4cc3ccc4O)C(O)c3ccc(c(Cl)c3)Oc3cc2cc(c3OC2OC(CO)C(O)C(O)C2OC2CC(C)(N)C(O)C(C)O2)Oc2ccc(cc2Cl)C1O` (centres unmarked) [CDP-I, Crystalline Degradation Product I], the “COMMERCIAL ASSAY VALUES” in experiment [2] (CDP-I 1 ug/mL) was 0.92 µg/mL; in experiment [2] (CDP-I 2.5 ug/mL), 1.61 µg/mL; in experiment [2] (CDP-I 5 ug/mL), 3.25 µg/mL; in experiment [2] (CDP-I 7 ug/mL) it was 4.54 µg/mL; in experiment [2] (CDP-I 10 ug/mL), 6.42 µg/mL; in experiment [2] (CDP-I 15 ug/mL), 8.87 µg/mL. In addition, the entries for the “COMMERCIAL ASSAY VALUES” in experiment [2] (CDP-I 20 ug/mL), in experiment [2] (CDP-I 25 ug/mL) and in experiment [2] (CDP-I 50 ug/mL) were 11.04 µg/mL, 12.94 µg/mL and 19.79 µg/mL, respectively. Also, the “COMMERCIAL ASSAY cross reactivity” value in experiment [2] (CDP-I 1 ug/mL) is “N.D. (Less than sensitivity at 2.00 ug/mL vancomycin)”; in experiment [2] (CDP-I 2.5 ug/mL), “N.D. (Less than sensitivity at 2.00 ug/mL vancomycin)”; in experiment [2] (CDP-I 5 ug/mL) it was 65%; in experiment [2] (CDP-I 7 ug/mL), 64.86%; in experiment [2] (CDP-I 10 ug/mL), 64.2%; in experiment [2] (CDP-I 15 ug/mL), 59.13%. Also, the entries for the “COMMERCIAL ASSAY cross reactivity” value in experiment [2] (CDP-I 20 ug/mL), in experiment [2] (CDP-I 25 ug/mL) and in experiment [2] (CDP-I 50 ug/mL) were 55.20%, 51.76% and 39.58%, respectively. Further, the “COMMERCIAL ASSAY” value in experiment [2] (setting [4]) stood at 39.99 µg/mL; in experiment [2] (setting [5]), 43.74 µg/mL; in experiment [2] (setting [6]), 55.49 µg/mL; in experiment [2] (setting [7]) it was 67.35 µg/mL; in experiment [2] (setting [8]), 78.85 µg/mL; in experiment [2] (setting [9]), 83.34 µg/mL. Further, the “COMMERCIAL ASSAY % C.R.” value in experiment [2] (setting [4]) is given as “N.D. (Less than sensitivity at 2.00 ug/mL vancomycin)”; in experiment [2] (setting [5]), 48%; in experiment [2] (setting [6]), 36.66%; in experiment [2] (setting [7]), 30.85%; in experiment [2] (setting [8]) it was “N.D. (Less than sensitivity at 2.00 ug/mL vancomycin)”; in experiment [2] (setting [9]), 38.1%. Moreover, the “COMMERCIAL ASSAY % C.R.” value in experiment [2] (setting [10]) and in experiment [2] (setting [11]) was “HI ((>100))” each time. Moreover, the “COMMERCIAL ASSAY Diff/Sample-control” value is 1.05 µg/mL in experiment [2] (setting [4]); 4.80 µg/mL in experiment [2] (setting [5]); 18.33 µg/mL in experiment [2] (setting [6]); 30.85 µg/mL in experiment [2] (setting [7]); -0.68 µg/mL in experiment [2] (setting [8]); 3.81 µg/mL in experiment [2] (setting [9]). Besides, the “COMMERCIAL ASSAY Diff/Sample-control” value in experiment [2] (setting [10]) and in experiment [2] (setting [11]) was “HI ((>100))” throughout. Besides, the “COMMERCIAL ASSAY ug/mL” value in experiment [2] (setting [10]) and in experiment [2] (setting [11]) was “HI ((>100))” each time. Besides, the “PRESENT INVENTION VALUES” in experiment [3] (CDP-I 1 ug/mL) was 0.22 µg/mL; in experiment [3] (CDP-I 2.5 ug/mL), 0.15 µg/mL; in experiment [3] (CDP-I 5 ug/mL), 0.26 µg/mL; in experiment [3] (CDP-I 7 ug/mL), “LOW”; in experiment [3] (CDP-I 10 ug/mL), 0.13 µg/mL; in experiment [3] (CDP-I 15 ug/mL), “LOW”. The “PRESENT INVENTION VALUES” was found to be 0.46 µg/mL in experiment [3] (CDP-I 20 ug/mL), 0.18 µg/mL in experiment [3] (CDP-I 25 ug/mL) and 0.67 µg/mL in experiment [3] (CDP-I 50 ug/mL). The “PRESENT INVENTION cross reactivity” value in experiment [3] (CDP-I 1 ug/mL), in experiment [3] (CDP-I 2.5 ug/mL), in experiment [3] (CDP-I 5 ug/mL), in experiment [3] (CDP-I 7 ug/mL), in experiment [3] (CDP-I 10 ug/mL) and in experiment [3] (CDP-I 15 ug/mL) was “N.D. (Less than sensitivity at 2.00 ug/mL vancomycin)” each time. For the same compound, the “PRESENT INVENTION cross reactivity” value in experiment [3] (CDP-I 20 ug/mL), in experiment [3] (CDP-I 25 ug/mL) and in experiment [3] (CDP-I 50 ug/mL) was “N.D. (Less than sensitivity at 2.00 ug/mL vancomycin)” in each case. In addition, the “PRESENT INVENTION” value in experiment [3] (setting [4]) was determined as 40.86 µg/mL; in experiment [3] (setting [5]), 40.50 µg/mL; in experiment [3] (setting [6]) it was 39.13 µg/mL; in experiment [3] (setting [7]), 37.22 µg/mL; in experiment [3] (setting [9]), 79.49 µg/mL; in experiment [3] (setting [10]) it was 74.41 µg/mL. For the same compound, the “PRESENT INVENTION” value in experiment [3] (setting [11]) is 71.22 µg/mL. Further, the “PRESENT INVENTION % C.R.” value in experiment [3] (setting [4]), in experiment [3] (setting [5]), in experiment [3] (setting [6]), in experiment [3] (setting [7]), in experiment [3] (setting [8]) and in experiment [3] (setting [9]) was “N.D. (Less than sensitivity at 2.00 ug/mL vancomycin)” in each case. The “PRESENT INVENTION % C.R.” value in experiment [3] (setting [10]) and in experiment [3] (setting [11]) was “N.D. (Less than sensitivity at 2.00 ug/mL vancomycin)” throughout. Further, the “PRESENT INVENTION Diff/Sample-Control” value in experiment [3] (setting [4]) is -0.20 µg/mL; in experiment [3] (setting [5]), -0.54 µg/mL; in experiment [3] (setting [6]) it was -0.14 µg/mL; in experiment [3] (setting [7]) it was 0.24 µg/mL; in experiment [3] (setting [8]) it was -0.64 µg/mL; in experiment [3] (setting [9]) it was -0.50 µg/mL. Also, the “PRESENT INVENTION Diff/Sample-Control” value is -0.83 µg/mL in experiment [3] (setting [10]) and -0.26 µg/mL in experiment [3] (setting [11]). In addition, the cross-reactivity entry in experiment [3] (vancomycin 0, 40, 80 μg/mL, cross reactants 0, 1, 10, 50, 100 μg/mL) is given as “less than 2%”.

Take aglucovancomycin [compound 6]: the Kd in experiment [1] turned out to be 42000 nM.
